According to US9844572B2, “Promotion of neuronal integration in neural stem cell grafts” (Life & Brain GmbH, priority 2009, dated 2017):

Tests used:
[1] = system: lt-hESNSC mixed with immature neurons on hippocampal rat slice cultures; assay: Transplantation onto rat hippocampal slice cultures (migration of human neurons from mixed grafts); type: cell-based; conditions: 2 μg/ml BIBF1120, day 7
Protocol: Using a vibroslicer, 400 μm horizontal sections were generated from the hippocampus of 9-10 day-old Wistar rats. The slices included the dentate gyrus and the entorhinal and temporal cortex (Scheffler et al., 2003; Opitz et al., 2007). They were transferred onto a polyester membrane and cultivated at 35° C., 5% CO2 and saturated air humidity in an initial culture medium containing 25% normal horse serum, which was gradually replaced after 3-5 days by chemically defined, serum-free culture medium based on DMEM/F12, N2 supplement and B27 supplement. Medium was changed every other day and 5-7 days after explantation a cell suspension of 50 000 cells in a 1 μl volume was spotted onto the entorhinal cortex of the slice using an injection device.
For immunohistochemical analysis of slice cultures (FIG. 4), cultures were fixed in 4% paraformaldehyde for 4 hours and subsequently washed several times with PBS. Slices were permeabilized/blocked with 0.1% Triton X-100+10% FCS for 6 hours at 25° C. Incubation with primary antibody was for 16 hours at room temperature, followed by washing steps with PBS for 5 hours. Incubation with the secondary antibodies was for 2 hours at room temperature.
To further investigate whether endostatin can also interfere with the chemoattractive effect of neural stem/progenitor cells on immature neurons in a context closer to an in vivo situation, hippocampal rat slice culture experiments were performed. HES-NSC70+N30 were pre-incubated for 30 minutes in 30 μl Cytocon™-Buffer II with either 2 μl stock solution endostatin (n=9) or with 2 μl of the solvent of endostatin (citric-phosphate buffer) as control (n=9), and then deposited on the entorhinal cortex of hippocampal slice cultures. Cultures of pure human neurons were transplanted as positive control (n=9). The slices were further cultured for 18 days after deposition of the cells. 1 μl/ml endostatin stock solution was continuously applied every day to the slice media.
To further investigate whether BIBF1120 can also interfere with the chemoattractive effect of neural stem/progenitor cells on immature neurons, hippocampal rat slice culture experiments were performed. Lt-hESNSC mixed with purified DCX-EGFP positive neurons (30.0000 lt-hESNSC mixed with 100.000 purified neurons per μl) were pre-incubated for 30 min. in Cytocon™-Buffer II with or without 2 μg/ml BIBF1120, respectively, and then deposited on the entorhinal cortex (EC) of hippocampal slice cultures. The slices were further cultured for 7 days after deposition of the cells. 2 μg/ml BIBF1120 was continuously applied every day to the slice media.

[2] = system: human Neurons; assay: Dunn chamber migration assay (chemotaxis of immature neurons); type: cell-based; conditions: BIBF1120 (2 μg), 6 h recording; for chemotactic response of human neurons towards FGF2 gradient in presence of inhibitor: FGF2 200 ng/ml in outer well; for chemotactic response of human neurons towards VEGF gradient in presence of inhibitor: VEGF 200 ng/ml in outer well
Protocol: FIG. 7A Dunn chamber migration assay. Schematic representation of a direct-viewing Dunn chemotaxis chamber showing the position of the inner well, the bridge, the outer well and the overlying coverslip (a) (Zicha et al., 1991 1998, Zhang et al., 2003). Adopted from Hawksley. Calculation of the forward migration index (FMI) during a 6 h recording period. FMI values can be either positive or negative, depending on the direction in which the cell is migrating (b).
FIG. 7B Directionality analysis of cell movement using scatter plots of cell displacement (c-i). The diagrams orientate such that the position of the outer well of the chamber are vertical (y direction). Each point represents the final position of a cell at the end of the recording period of 6-h; the starting point of migration is fixed at the intersection of the two axes. As control migration of human neurons was monitored in medium only (c). For assessing chemokinesis, equal amounts of FGF2 (d) or VEGF (e) were added to both the outer and the inner wells of the chamber. Chemotaxis was tested by placing FGF2 (f) or VEGF (g) in the outer well only. Migration of human neurons treated with BFBF1120 was monitored towards a FGF2 (h) and VEGF (i) gradient.
Chemotaxis of immature neurons was directly viewed and recorded in stable concentration gradients of FGF2 (200 ng/ml) or VEGF (200 ng/ml), respectively, with or without the addition of BIBF1120 ([…]) using a Dunn chemotaxis chamber (Allen et al., 1998 1998, Zhang et al., 2003). This device is made from a Helber bacteria counting chamber by grinding a circular well in the central platform to leave a 1 mm-wide annular bridge between the inner and the outer well. Chemoattractants added to the outer well of the chamber will diffuse across the bridge to the inner well and form a linear steady gradient within ˜30 min after loading the chamber (Zicha et al., 1991; Webb et al., 1996). To study chemotaxis, the outer well of the Dunn chamber can be filled with medium containing a chemoattractant, whereas the concentric inner well is filled with medium only. Coverslips carrying the cultured cells are inverted and placed onto the chamber. Cell locomotion is recorded through the annular bridge between the concentric inner and outer well. For assessing chemokinesis, the outer and inner wells are filled with equal concentrations of the chemoattractant. A period of 6 h was chosen to assess cell migration.
To determine the efficiency of forward migration during the 6 h recording period, the FMI was calculated as the ratio of forward progress to the total path length (Foxman et al., 1999; Zhang et al.).

[3] = system: lt-hESNSC; assay: BrdU cell proliferation assay; type: cell-based, human; conditions: BIBF1120 2 μg/ml for 20 h; BrdU 2.5 h
Protocol: (§1) FIG. 9 The effect of BIBF1120 on lt-hESNSC proliferation and differentiation. The proliferative effect was measured in a BrdU proliferation assay of lt-hESNSC, either with or without BIBF1120 (a). Bars represent the percentage of BrdU positive cells, cultured for 20 hours in NSC-medium or in NSC-medium with BIBF1120 (2 μg/ml) and treated for 2.5 h with BrdU. The neurogenic effect of BIBF1120 on lt-hESNSC was studied (b). Bars represent the percentage of βIII tubulin-positive neurons in lt-hESNSC cultured for 10 days in neuronal generation medium or in neuronal generation medium with BIBF1120 (2 μg/ml).
For BrdU staining (FIG. 6A) 0.5% Triton X-100 in PBS was used for permeabilizing the cells. After washing, cells were incubated with 2 M HCl for 10 minutes, washed in PBS, equilibrated using 0.1 M borate buffer, washed again in PBS, followed by an incubation with the primary antibody diluted in blocking solution at room temperature over night. Staining with the secondary antibody was performed as described.
5′-bromo-T-deoxyuridine (BrdU) is a thymidine analog that incorporates into dividing cells during DNA synthesis. To determine whether BIBF1120 has an influence on the proliferation rate of lt-hESNSC, cells were cultured under neural proliferation medium with or without BIBF1120 (2 μg/ml) for 20 h. BrdU was added to the culture medium for 2.5 h. […]

[4] = system: lt-hESNSC; assay: Neurogenesis assay (differentiation in neuronal generation medium); type: cell-based, human; conditions: 10 days in neuronal generation medium with BIBF1120 (2 μg/ml)
Protocol: as §1
Differentiation was studied by a neurogenesis assay. In this assay lt-hESNSC were cultured for 10 days in neuronal generation medium or in neuronal generation medium with BIBF1120 (2 μg/ml), fixed and stained for […].

[5] = system: mitogen-activated protein kinase (MAPK) and Akt signalling pathways; conditions: after 1-hour treatment; cell culture; cited from earlier work

SMILES: COC(=O)c1ccc2c(c1)NC(=O)/C2=C(\Nc1ccc(N(C)C(=O)CN2CCN(C)CC2)cc1)c1ccccc1 [BIBF1120, 3-Z-[1-(4-(N-((4-methyl-piperazin-1-yl)-methylcarbonyl)-N-methyl-amino)-anilino)-1-phenyl-methylene]-6-methoxycarbonyl-2-indolinone]
- migration along the z-axis [1]: easily migrated throughout the entire slice tissue
- total number of human neurons within 10 μm thick optical plane, bottom of the slice [1]: 14±7.8
- total number of human neurons within 10 μm thick optical plane, middle of the slice [1]: 14.6±6.1
- number of neurons migrated beyond a 250 μm perimeter around the deposition site, increase vs control ([1]; xy-axis): two-fold increase
- migration horizontally over the slice compared to control population ([1]; lt-hESNSC mixed with purified neurons): enhanced migration and integration capacity
- chemotactic response of human neurons towards FGF2 gradient in presence of inhibitor [2]: lost their chemotactic response
- chemotactic response of human neurons towards FGF2 gradient in presence of inhibitor ([2]; listed as BFBF1120): loose this chemotactic response
- chemotactic response of human neurons towards VEGF gradient in presence of inhibitor [2]: lost their chemotactic response
- chemotactic response of human neurons towards VEGF gradient in presence of inhibitor ([2]; listed as BFBF1120): loose this chemotactic response
- proliferation rate (BrdU positive cells) vs untreated control [3]: no significant difference
- differentiation (βIII tubulin-positive neurons) [4]: not significantly influenced
- duration of sustained pathway inhibition [5]: up to 32 hours
